# Measured values from patent US9303017B2, “2,5-disubstituted-pyridyl nicotinic ligands, and methods of use thereof” (Georgetown University, priority 2011, dated 2016).
# pIC50, pKi: −log10 of the molar value. Read-outs that look alike come from different tables or passages of the source.
# Assays:
# α2β2 nAChR = α2β2 nAChR (Rattus norvegicus (Rat), UniProt P12389+P12390); test: [3H]-epibatidine competition binding, α2β2; details: Table 1; mean of 3 to 5 measurements
# Description: (§1) In Vitro Binding Affinities for nAChR Subtypes. […] To determine selectivities of these compounds in binding assays among the three predominant nAChR subtypes, α3β4, α4β2 and α7, the ratios of Ki values (α3β4/α4β2 and α7/α4β2) were determined.
# (§2) Cell Lines and Cell Culture. The cell lines expressing defined rat nAChR subtypes were established previously by stably transfecting HEK 293 cells with rat nAChR subunit genes. The cell line expressing human α4β2 nAChRs, YXα4β2H1, was established recently. These cell lines were maintained in minimum essential medium (MEM) supplemented with 10% fetal bovine serum, 100 units/mL penicillin G, […] and selective antibiotics at 37° C. with 5% CO2 in a humidified incubator. Fetal bovine serum was provided by Gemini Bio-Products (Woodland, Calif.). […]
# (§3) Briefly, cultured cells at >80% confluence were removed from their flasks (80 cm^2) with a disposable cell scraper and placed in 10 mL of 50 mM Tris.HCl buffer (pH 7.4, 4° C.). […] The filter-retained radioactivity was measured by liquid scintillation counting. […] Data from competition binding assays were analyzed using Prism 5 (GraphPad Software, San Diego, Calif.).
# (§4) Pharmacological Properties. We measured the in vitro binding affinities of the ligands for defined receptor subtypes (α2β2, α2β4, α3β2, α3β4, α4β2, α4β4, α6β2, α6β4, and α7) expressed in stably transfected cell lines. […]
# α3β4 nAChR = α3β4 nAChR (Rattus norvegicus (Rat), UniProt P04757+P12392); test: [3H]-epibatidine competition binding, α3β4
# Description: as §1
# (§5) Cell Lines and Cell Culture. The cell lines expressing defined rat nAChR subtypes were established previously by stably transfecting HEK 293 cells with rat nAChR subunit genes. The cell line expressing human α4β2 nAChRs, YXα4β2H1, was established recently. These cell lines were maintained in minimum essential medium (MEM) supplemented with 10% fetal bovine serum, 100 units/mL penicillin G, […] and selective antibiotics at 37° C. with 5% CO2 in a humidified incubator. Fetal bovine serum was provided by Gemini Bio-Products (Woodland, Calif.). Tissue culture medium and antibiotics were obtained from Invitrogen Corporation (Carlsbad, Calif.), unless otherwise stated.
# (§6) Briefly, cultured cells at >80% confluence were removed from their flasks (80 cm^2) with a disposable cell scraper and placed in 10 mL of 50 mM Tris.HCl buffer (pH 7.4, 4° C.). The cell suspension was centrifuged at 10,000×g for 5 min and the pellet was collected. The cell pellet was then homogenized in 10 mL buffer with a polytron homogenizer and centrifuged at 36,000 g for 10 min at 4° C. The membrane pellet was resuspended in fresh buffer, and aliquots of the membrane preparation were used for binding assays. […] Bound and free ligands were separated by vacuum filtration through Whatman GF/C filters treated with 0.5% polyethylenimine. The filter-retained radioactivity was measured by liquid scintillation counting. Specific binding was defined as the difference between total binding and nonspecific binding. Data from competition binding assays were analyzed using Prism 5 (GraphPad Software, San Diego, Calif.).
# (§7) Pharmacological Properties. We measured the in vitro binding affinities of the ligands for defined receptor subtypes (α2β2, α2β4, α3β2, α3β4, α4β2, α4β4, α6β2, α6β4, and α7) expressed in stably transfected cell lines. […] Rat forebrain homogenates were included to allow comparison between the heterologous and native α4β2 and α7 nAChRs. See Table 1 for binding affinity values (Ki) of the ligands at the three major nAChR subtypes (α3β4. α4β2 and α7).
# α4β4 nAChR = α4β4 nAChR (Rattus norvegicus (Rat), UniProt P09483+P12392); test: [3H]-epibatidine competition binding, α4β4; details: Table 1; mean of 3 to 5 measurements
# Description: as §1, §2, §3, §4
# human α4β2 nAChRs = human α4β2 nAChRs (Homo sapiens (Human), UniProt P17787+P43681); test: 86Rb+ efflux assay (activation and desensitization), α4β2; type: cell-based; details: for pIC50: desensitization
# Description: (§8) In Vitro Effects on nAChR Function. […] Their agonist activities were assessed by measuring stimulated ^86Rb^+ efflux from stably transfected cells, either expressing human α4β2 nAChRs or rat α3β4 receptors.
# as §5
# (§9) ^86Rb^+ Efflux Assay. Functional properties of compounds at nAChRs expressed in the transfected cells were measured using ^86Rb^+ efflux assays as described previously. In brief, cells expressing human α4β2 or rat α3β4 nAChRs were plated into 24-well plates coated with poly-D-lysine. The plated cells were grown at 37° C. for 18 to 24 hour to reach 85-95% confluence. The cells were then incubated in growth medium (0.5 mL/well) containing ^86Rb^+ (2 μCi/mL) for 4 hour at 37° C. The loading mixture was then aspirated, and the cells were washed four times with 1 mL buffer (15 mM HEPES, 140 mM NaCl, 2 mM KCl, 1 mM MgSO4, 1.8 mM CaCl2, 11 mM Glucose, pH 7.4). One mL of buffer with or without compounds to be tested was then added to each well. After incubation for 2 min, the assay buffer was collected for measurements of ^86Rb^+ released from the cells. Cells were then lysed by adding 1 mL of 100 mM NaOH to each well, and the lysate was collected for determination of the amount of ^86Rb^+ that was in the cells at the end of the efflux assay. Radioactivity of assay samples and lysates was measured by liquid scintillation counting. Total loading (cpm) was calculated as the sum of the assay sample and the lysate of each well. The amount of ^86Rb^+ efflux was expressed as a percentage of ^86Rb^+ loaded. […] For obtaining EC50 and Emax values, stimulation curves were constructed in which 8 different concentrations of a ligand were included in the assay. […] EC50, Emax and IC50(10′) values were determined by nonlinear least-squares regression analyses (GraphPad, San Diego, Calif.).
# (§10) The functional properties of the ligands were determined by ^86Rb^+ efflux assays in cells expressing α3β4 and α4β2 nAChR subtypes. The functional activity of each ligand was measured for its agonism, antagonism and desensitization ability. Agonist activity for each of the ligands was tested at eight different concentrations. […] The full concentration-effect curves generated potency (EC50) and efficacy (Emax) of each ligand. […] We tested each ligand for antagonist activity at eight concentrations. The potency (IC50(0′)) of each ligand as an antagonist was derived from the full concentration-effect curves.
# α4β2 nAChR = α4β2 nAChR (Rattus norvegicus (Rat), UniProt P09483+P12390); test: biochemical; type: binding; details: for pKi: read-out: Ki α4β2
# Description: as §1, §5, §6, §7
# rat α3β4 nAChRs = rat α3β4 nAChRs (Rattus norvegicus (Rat), UniProt P04757+P12392); test: 86Rb+ efflux assay (activation and desensitization), α3β4; type: cell-based
# Description: as §8, §5, §9, §10
# α2β4 nAChR = α2β4 nAChR (Rattus norvegicus (Rat), UniProt P12389+P12392); test: [3H]-epibatidine competition binding, α2β4; details: Table 1; mean of 3 to 5 measurements
# Description: as §1, §2, §3, §4
# α7 nAChR = α7 nAChR (Rattus norvegicus (Rat), UniProt Q05941); type: binding
# Description: as §1, §5, §6, §7
# α3β2 nAChR = α3β2 nAChR (Rattus norvegicus (Rat), UniProt P04757+P12390); test: [3H]-epibatidine competition binding, α3β2; details: Table 1; mean of 3 to 5 measurements
# Description: as §1, §2, §3, §4
# [1] = Table 1, mean of 3 to 5 measurements
smiles,measurement,setting,value
"Cc1ncc(C#CCCCCCl)cc1OC[C@@H]1CCN1 [(S)-21, (S)-3-(azetidin-2-ylmethoxy)-5-(6-chlorohex-1-ynyl)-2-methylpyridine]",pKi,α2β2 nAChR,8.07
same,pKi,α3β4 nAChR; [1],4.04
same,pKi,α3β4 nAChR; Table 3 (Example 4),4.07
same,pKi,α4β4 nAChR,5.43
same,Emax α4β2 nAChRs,"human α4β2 nAChRs; agonist efficacy normalized to Emax of nicotine, ND = no significant stimulated efflux detected",didn't show detectable agonist activity
same,pIC50,"human α4β2 nAChRs; 10 min pre-treatment, Table 3 (Example 4), read-out: IC50(10′) α4β2",6.57
same,pIC50,"human α4β2 nAChRs; 10 min pre-incubation before 100 μM nicotine, Table 2, read-out: IC50(10′) α4β2 nAChRs",6.59
same,pKi,α4β2 nAChR; [1],8.28
same,pKi,α4β2 nAChR; Table 3 (Example 4),8.33
same,Ki Ratio α3β4/α4β2,α4β2 nAChR; selectivity for α4β2 over α3β4,"17,000"
same,Ki Ratio α7/α4β2,α4β2 nAChR; selectivity for α4β2 over α7,"13,000"
same,pIC50,rat α3β4 nAChRs; read-out: IC50(10′) α3β4,4.96
same,pIC50,rat α3β4 nAChRs; read-out: IC50(10′) α3β4 nAChRs,< 5.00
same,pKi,α2β4 nAChR,4.54
same,pKi,α7 nAChR; [1],4.17
same,pKi,α7 nAChR; Table 3 (Example 4),4.17
same,pKi,α3β2 nAChR,6.52
